Data taken from PubChem BioAssay (NCI).
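Cells were grown in 96-well plates and exposed to each compound for 48 hours at five concentrations; endpoints were interpolated linearly between bracketing concentrations, or set to the highest concentration if not reached. The concentration for 50% growth inhibition is given as GI50. TGI: concentration producing complete growth inhibition.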

Experiments:
Experiment in all cases: DTP human tumour cell line panel, 48 h; in the data active = GI50 below about 0.43 µM; inactive = the rest
HCT-15 colon = test system: HCT-15 colon
SK-MEL-2 melanoma = test system: SK-MEL-2 melanoma
HCC-2998 colon = test system: HCC-2998 colon
SNB-75 CNS = test system: SNB-75 CNS
HT29 colon = test system: HT29 colon
SN12C renal = test system: SN12C renal
HCT-116 colon = test system: HCT-116 colon
BT-549 breast = test system: BT-549 breast
DU-145 prostate = test system: DU-145 prostate
TK-10 renal = test system: TK-10 renal
OVCAR-4 ovarian = test system: OVCAR-4 ovarian
M14 melanoma = test system: M14 melanoma
IGROV1 ovarian = test system: IGROV1 ovarian
HS 578T breast = test system: HS 578T breast
PC-3 prostate = test system: PC-3 prostate
HL-60(TB) leukemia = test system: HL-60(TB) leukemia
KM12 colon = test system: KM12 colon
NCI-H460 lung = test system: NCI-H460 lung
UACC-257 melanoma = test system: UACC-257 melanoma
UACC-62 melanoma = test system: UACC-62 melanoma
RPMI-8226 leukemia = test system: RPMI-8226 leukemia
COLO 205 colon = test system: COLO 205 colon
NCI-H226 lung = test system: NCI-H226 lung
NCI-H23 lung = test system: NCI-H23 lung
SNB-19 CNS = test system: SNB-19 CNS
NCI-H522 lung = test system: NCI-H522 lung
LOX IMVI melanoma = test system: LOX IMVI melanoma
T-47D breast = test system: T-47D breast
NCI/ADR-RES ovarian = test system: NCI/ADR-RES ovarian
OVCAR-5 ovarian = test system: OVCAR-5 ovarian
CAKI-1 renal = test system: CAKI-1 renal
UO-31 renal = test system: UO-31 renal
SF-268 CNS = test system: SF-268 CNS
MCF7 breast = test system: MCF7 breast
RXF 393 renal = test system: RXF 393 renal
MDA-MB-435 = test system: MDA-MB-435
SW-620 colon = test system: SW-620 colon
SF-539 CNS = test system: SF-539 CNS
SF-295 CNS = test system: SF-295 CNS
K-562 leukemia = test system: K-562 leukemia
SR leukemia = test system: SR leukemia
A498 renal = test system: A498 renal
OVCAR-8 ovarian = test system: OVCAR-8 ovarian
HOP-62 NSCLC = test system: HOP-62 NSCLC
MOLT-4 leukemia = test system: MOLT-4 leukemia
SK-MEL-28 melanoma = test system: SK-MEL-28 melanoma
A549 NSCLC = test system: A549 NSCLC
OVCAR-3 ovarian = test system: OVCAR-3 ovarian
SK-OV-3 ovarian = test system: SK-OV-3 ovarian
CCRF-CEM leukemia = test system: CCRF-CEM leukemia
U251 CNS = test system: U251 CNS
786-0 renal = test system: 786-0 renal
SK-MEL-5 melanoma = test system: SK-MEL-5 melanoma
ACHN renal = test system: ACHN renal
HOP-92 NSCLC = test system: HOP-92 NSCLC
MDA-MB-231 breast = test system: MDA-MB-231 breast
MALME-3M melanoma = test system: MALME-3M melanoma

Cn1cc(C2=C(c3ccc(N)cc3)C(=O)NC2=O)c2ccccc21
> 25 µM: TGI (HCT-15 colon) | TGI (HCC-2998 colon) | TGI (HT29 colon) | TGI (SN12C renal) | TGI (HCT-116 colon) | TGI (BT-549 breast) | TGI (DU-145 prostate) | TGI (TK-10 renal) | TGI (OVCAR-4 ovarian) | TGI (M14 melanoma) | TGI (IGROV1 ovarian) | TGI (PC-3 prostate) | TGI (HL-60(TB) leukemia) | TGI (KM12 colon) | TGI (NCI-H460 lung) | TGI (UACC-257 melanoma) | TGI (UACC-62 melanoma) | TGI (RPMI-8226 leukemia) | TGI (COLO 205 colon) | TGI (NCI-H226 lung) | TGI (NCI-H23 lung) | TGI (SNB-19 CNS) | TGI (NCI-H522 lung) | TGI (LOX IMVI melanoma) | TGI (T-47D breast) | TGI (NCI/ADR-RES ovarian) | TGI (OVCAR-5 ovarian) | TGI (CAKI-1 renal) | TGI (UO-31 renal) | TGI (SF-268 CNS) | TGI (MCF7 breast) | TGI (SW-620 colon) | TGI (SF-539 CNS) | TGI (SF-295 CNS) | TGI (K-562 leukemia) | TGI (SR leukemia) | TGI (OVCAR-8 ovarian) | TGI (HOP-62 NSCLC) | TGI (MOLT-4 leukemia) | TGI (SK-MEL-28 melanoma) | TGI (A549 NSCLC) | TGI (OVCAR-3 ovarian) | TGI (SK-OV-3 ovarian) | TGI (CCRF-CEM leukemia) | TGI (U251 CNS) | TGI (786-0 renal) | TGI (SK-MEL-5 melanoma) | TGI (ACHN renal) | TGI (HOP-92 NSCLC) | TGI (MDA-MB-231 breast) | TGI (MALME-3M melanoma)
> 22.9 µM: TGI (RXF 393 renal)
12 µM: TGI (A498 renal)
> 16.1 µM: TGI (HS 578T breast)
> 19 µM: TGI (SK-MEL-2 melanoma)
24.4 µM: TGI (MDA-MB-435)
> 15.2 µM: TGI (SNB-75 CNS)
inactive: GI50 (HCT-15 colon) 11.5 µM | GI50 (SK-MEL-2 melanoma) 8.38 µM | GI50 (HCC-2998 colon) > 25 µM | GI50 (SNB-75 CNS) 0.571 µM | GI50 (HT29 colon) 12.5 µM | GI50 (SN12C renal) 16.3 µM | GI50 (HCT-116 colon) 11.3 µM | GI50 (BT-549 breast) 11.4 µM | GI50 (DU-145 prostate) > 25 µM | GI50 (TK-10 renal) > 25 µM | GI50 (OVCAR-4 ovarian) > 25 µM | GI50 (M14 melanoma) > 20.4 µM | GI50 (IGROV1 ovarian) > 23.7 µM | GI50 (HS 578T breast) 3.01 µM | GI50 (PC-3 prostate) 17 µM | GI50 (HL-60(TB) leukemia) 8.58 µM | GI50 (KM12 colon) 10.9 µM | GI50 (NCI-H460 lung) 23.3 µM | GI50 (UACC-257 melanoma) > 25 µM | GI50 (UACC-62 melanoma) 11.8 µM | GI50 (RPMI-8226 leukemia) > 23.5 µM | GI50 (COLO 205 colon) 11.6 µM | GI50 (NCI-H226 lung) 16.1 µM | GI50 (NCI-H23 lung) 21.6 µM | GI50 (SNB-19 CNS) > 25 µM | GI50 (NCI-H522 lung) 15.4 µM | GI50 (LOX IMVI melanoma) 9.88 µM | GI50 (T-47D breast) > 24 µM | GI50 (NCI/ADR-RES ovarian) 21.8 µM | GI50 (OVCAR-5 ovarian) > 25 µM | GI50 (CAKI-1 renal) > 18.9 µM | GI50 (UO-31 renal) 16.5 µM | GI50 (SF-268 CNS) 20.1 µM | GI50 (MCF7 breast) 13.7 µM | GI50 (RXF 393 renal) 4.85 µM | GI50 (MDA-MB-435) 5.71 µM | GI50 (SW-620 colon) 13.7 µM | GI50 (SF-539 CNS) 9.02 µM | GI50 (SF-295 CNS) 15.7 µM | GI50 (K-562 leukemia) 9.71 µM | GI50 (SR leukemia) 9.43 µM | GI50 (A498 renal) 3.63 µM | GI50 (OVCAR-8 ovarian) > 25 µM | GI50 (HOP-62 NSCLC) > 25 µM | GI50 (MOLT-4 leukemia) 9.3 µM | GI50 (SK-MEL-28 melanoma) > 25 µM | GI50 (A549 NSCLC) 18.4 µM | GI50 (OVCAR-3 ovarian) 14.3 µM | GI50 (SK-OV-3 ovarian) 13.9 µM | GI50 (CCRF-CEM leukemia) 12.3 µM | GI50 (U251 CNS) 11.4 µM | GI50 (786-0 renal) 11.9 µM | GI50 (SK-MEL-5 melanoma) > 17.8 µM | GI50 (ACHN renal) 13.4 µM | GI50 (HOP-92 NSCLC) > 25 µM | GI50 (MDA-MB-231 breast) > 23 µM | GI50 (MALME-3M melanoma) > 25 µM
